Consider eight compounds from patent publication US20030119903A1, “Use of trimebutine for treating pain” (priority 1999, published 2003).

As usually defined, the IC50 is the concentration that gives 50% inhibition. As usually defined, the ED50 is the midpoint of the dose-response relation.

Molecules are shown by their SMILES. Like-named read-outs stand apart in the source and are kept apart here.

The test system of series [1] is sodium currents in DRG neurons. The experiment in a line: whole cell patch clamp, sodium currents in DRG neurons. The class given is cell-based, rat. A general note: In patch-clamp work, channel activity is measured electrically.
The subject of series [2] is veratridine-induced glutamate release. Nature of the series: veratridine-induced [3H]-glutamate release from rat spinal cord slices. The settings on record: for IC50: read-out: IC50, inhibition of veratridine-induced glutamate release.
A further series relates to formalin induced pain. Nature of the series: formalin-induced pain. The note with it: for ED50: Rattus norvegicus, sc, read-out: ED50, formalin induced pain (licking time).
Series [3] concerns PGE2-induced hyperalgesia. Nature of the series: PGE2-induced hyperalgesia (Randall and Selitto's test).
Method: Test is carried out with Sprague-Dawley male rats (100-120 grams) on arrival. They are housed 5 per cage and acclimated to the conditions of the animal room for 5 days under a 12/12 day/night cycle and a constant room temperature of 22° C. Food and water are provided ad libidum.
A solution of PGE2 (1 mg/ml) is prepared as a stock solution in a 10% (v/v) alcohol in apyrogen sterile saline and stored at 4° C. for 4 days.
A solution of PGE2 (1 μg/ml) is freshly prepared twice daily in sterile saline and 100 μl is injected subplantar into the left paw of rat, twice daily for 4 days. Using this protocol, hyperalgesia is present for at least a week following completion for 4 days of treatment.
Hyperalgesia is measured by the Randall and Selitto's test (Randall and Setillo,1957) using an analgesimeter (Ugo Basile). The analgesimeter is basically a device which exerts a force that increases at constant rate. The force is applied to the animal's paw which is placed on a small plinth under a cone-shaped pusher. The operator depresses a pedal-switch to start the mechanism with exerts the force. The nociceptive threshold is defined as the force at which the rat withdraws its paw. The threshold is determined before and after treatment.
% of antinociceptive activity is calculated as follows: [formula]
The test system of series [4] is streptozocin-induced hyperalgesia. Nature of the series: streptozocin-induced diabetic rats, tail immersion test. It counts as in vivo, rat. The settings on record: 30 mg/kg s.c. single dose, 30 min or 60 min before test, 44° C. The text has this: FIG. 9: Effect of TMB in diabetic rats.
Streptozocin is a selective pancreatic β-cell toxin, which has been used to induce experimental diabetes in laboratory animals (Tomlinson K. C. et al., 1992,). The resultant loss of endogenous insulin induced by streptozocin mimics the characteristics of type I, or insulin-dependent, diabetes. Streptozocin-induced diabetes has recently been described as a model of chronic pain in rats. It has been reported that streptozocin administration leads to mechanical, thermal, and chemical hyperalgesia as well as mechanical hypersensitivity (Courteix C. et al., 1993; Calcutt N. A. et al., 1996). The most common symptoms of diabetic neuropathy appear to be spontaneous burning pain and mechanical hypersensitivity in the feet or lower limbs.
Test is carried out with male Sprague Dawley rats (Iffa-Credo) weighing 160-180 grams on arrival. […] Food and water are provided ad libidum.
Animals are intraperitoneally injected with streptozocin 75 mg/kg. Control animals are given vehicle in the same conditions. Diabetes are confirmed once a week after injection by measurement of tail vein blood glucose levels with Boehriger glycemia test. […]
The tail of the rat is immersed in a water bath at 44° C. […] Results are expressed as the mean+/−SEM and analysed by a Student's t test after an analysis of variance (Anova one way).

In series [5] the test system is unilateral peripheral mononeuropathy. Nature of the series: rat mononeuropathy, vocalization threshold to paw pressure. The settings on record: for duration of the antinociceptive effect: (S)-Nor-TMB s.c., morphine i.v.
The test system of series [6] is μ-, δ- and κ- opioid receptors. The settings on record: rat brain, guinea-pig and canine intestinal receptors; no subtype selectivity; cited from earlier work.
Series [7] concerns voltage-dependent Kv1.1 and Kv1.2 channels. The experiment in a line: two-electrode voltage clamp, potassium currents in Xenopus oocytes. The settings on record: 10 μM, Kv1.1 and Kv1.2 in Xenopus oocytes. For orientation: Two-electrode voltage clamp holds a large cell at a set potential and records current.
Method: (B) Potassium currents expressed in Xenopus oocytes. Superimposed current traces induced by 400 ms depolarizations at −40 to +20 mV (in 10 mV step from −80 mV).
Two voltage-dependent K^+ channels are considered: the shaker-related Kv1.1 and Kv1.2 channels.
The rat voltage-dependent rKv1.1 and rKv1.2 channels are expressed in Xenopus oocytes. […] The transcriptions are done using the Ambion Megascript (Ambion, USA) and the cRNAs are stored in water at 1 mg/ml. cRNAs injection in Xenopus oocytes is done at 2-4 ng/ml. Defolliculated oocytes are kept in ND96 medium supplemented with 0.1 U/ml gentamicin. The currents are recorded 1-6 days after injection.
A two-electrode voltage clamp amplifier (Geneclamp 500, Axon Instruments) is used to record K^+ currents from Xenopus oocytes. The KCl (3M)-filled electrodes had tip resistance<1 MΩ. The oocytes are continuously superfused with a Ca^2+-free ND96 medium in order to abolish the large Ca^2+-activated Cl^− current present in these cells.
The test system of series [8] is sodium currents in GH3 cells. The experiment in a line: sodium currents in GH3 cells. The class given is cell-based, rat. The settings on record: read-out: IC50, sodium current block (summary statement).
The conditions of series [9]: volunteers, tablets of 900 mg trimebutine, oral.

In the case of `CCC(COC(=O)c1cc(OC)c(OC)c(OC)c1)(NC)c1ccccc1` (stereo not shown) [Nor-TMB, N-desmethyl trimebutine], in [1] (DRG neurons), the “inhibition parameters (IC50, nH) compared with trimebutine” value is on record as “very similar”. For the same compound, the IC50 in [2] (veratridine 40 μM, rat spinal cord slices) was determined as 8.4 µM. In addition, the “ED50, formalin induced pain (licking time)” value in the series on formalin induced pain (s.c., 30 min before testing) was 17 mg/kg.

Turning to `CC[C@](COC(=O)c1cc(OC)c(OC)c(OC)c1)(c1ccccc1)N(C)C` [(R)-Trimebutine], the IC50 in series [2] (Rattus norvegicus) is over 100 µM. The “inhibition of PGE2-induced hyperalgesia” value in [3] (100 mg/kg s.c.) came to 57%.

With `CC[C@](COC(=O)c1cc(OC)c(OC)c(OC)c1)(NC)c1ccccc1` [(S)-Nor-TMB, (S)-N-desmethyl trimebutine], the “reaction time of tail withdrawal from hot water” value in [4] is reported as “the same as in control (non diabetic) rats”. Further, in series [5] (3 and 10 mg/kg s.c., amplitude and duration), the “antinociceptive effect compared with morphine 1 mg/kg i.v.” value is listed as “superior to that of morphine”. The “duration of the antinociceptive effect” value in series [5] is on record as “more than 90 min”. Further, in series [5] (s.c.), the “dose from which the increase of vocalization pressure threshold is present” value was at least 1 mg/kg. In addition, in series [5] (vocalization threshold, s.c.), the “antinociceptive effect, contralateral paw” value is “only at the highest dose (10 mg/kg)” and the “antinociceptive effect, nerve-injured paw” value is given as “significant at all the three doses tested”. Besides, the IC50 in [2] (Rattus norvegicus) was 6.3 µM. The “inhibition of PGE2-induced hyperalgesia” value in series [3] (20 mg/kg s.c.) is on record as “up to 89%”. The ED50 in [3] (Rattus norvegicus, sc, read-out: ED50, PGE2-induced hyperalgesia) was determined as 7 mg/kg.

Take `CC[C@@](COC(=O)c1cc(OC)c(OC)c(OC)c1)(c1ccccc1)N(C)C` [(S)-Trimebutine]: the IC50 in [2] (Rattus norvegicus) stood at 15.2 µM.

For the compound `CN1CC[C@]23c4c5ccc(O)c4O[C@H]2[C@@H](O)C=C[C@H]3[C@H]1C5` [morphine], in series [5], the “duration of the antinociceptive effect” value is “less than 60 min”. For the same compound, in series [2] (up to 100 μM), the “effect on veratridine-induced glutamate release” value is “inactive”. For the same compound, in the series on formalin induced pain, the 50% effective dose (ED50) stood at 0.51 mg/kg.

Regarding `CC[C@@](COC(=O)c1cc(OC)c(OC)c(OC)c1)(NC)c1ccccc1` [(R)-Nor-TMB, (R) N-desmethyl trimebutine], the IC50 in [2] (Rattus norvegicus) came to 16.3 µM.

As to `CCC(COC(=O)c1cc(OC)c(OC)c(OC)c1)(c1ccccc1)N(C)C.O=C(O)/C=C\C(=O)O` (racemic) [trimebutine, 2-dimethylamino-2-phenylbutyl 3,4,5-trimethoxybenzoate hydrogen maleate], the blocking rate kon in series [1] was 35-40 10^−3s^−1 μM^−1. For the same compound, the unblocking rate koff in series [1] is reported as 29 10^−3s^−1. Also, in series [1] (10 μM), the “time constant of channel block” value came to 2.2 s. For the same compound, the “τoff, time constant of recovery from block” value in series [1] (n=6) came out at 34 ± 4 s. Moreover, the half-inhibitory concentration (IC50) in [1] (read-out: IC50, best fit to Hill function (FIG. 4D legend)) is 0.69 µM; in series [1] (read-out: IC50, sodium current block (dose-response curve, text)) it was 1.05 ± 0.09 µM; in series [1] (read-out: IC50, sodium current block (summary statement)), under 1 µM; in series [8] it was under 1 µM; in [2] (Rattus norvegicus), over 100 µM. Further, the “activity at opioid receptors” value in [6] was “weak agonist activity”. For the same compound, the “K+ current block” value in series [7] came to 23±6%. Further, in [9], the “time of maximal plasma concentration” value is 1 h. Further, the “concentration at which inhibition of glutamate release is seen / significant” value in [2] is “higher than 60 μM”. Moreover, the ED50 in the series with formalin induced pain stood at 231 mg/kg.

Consider `CCCCN1CCCCC1C(=O)Nc1c(C)cccc1C` (stereo not shown) [bupivacaine], for which the IC50 in [2] (Rattus norvegicus) was found to be 8.2 µM.
